Data on 3 compounds can be found in ChEMBL document CHEMBL4420076, “Amylin and calcitonin receptor agonist” (2017).

Data set [1] has as its target T1, Calcitonin receptor (Homo sapiens, UniProt P30988).
T1 sequence (P30988 whole entry): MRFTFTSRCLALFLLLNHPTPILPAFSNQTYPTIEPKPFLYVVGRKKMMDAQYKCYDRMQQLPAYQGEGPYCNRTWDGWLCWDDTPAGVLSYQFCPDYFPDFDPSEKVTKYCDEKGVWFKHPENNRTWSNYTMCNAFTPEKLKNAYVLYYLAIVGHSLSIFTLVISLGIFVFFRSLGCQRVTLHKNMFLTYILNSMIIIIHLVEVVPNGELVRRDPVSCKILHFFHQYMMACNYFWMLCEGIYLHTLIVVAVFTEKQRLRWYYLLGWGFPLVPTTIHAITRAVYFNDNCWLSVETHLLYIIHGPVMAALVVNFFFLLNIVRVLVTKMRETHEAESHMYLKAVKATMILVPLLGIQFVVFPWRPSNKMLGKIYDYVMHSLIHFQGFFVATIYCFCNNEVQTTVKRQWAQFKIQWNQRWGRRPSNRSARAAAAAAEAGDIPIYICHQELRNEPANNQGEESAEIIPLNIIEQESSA
The experiment in a line: Agonist activity at human calcitonin receptor expressed in BHK570 cells assessed as increase in intracellular cAMP concentration incubated for 3 hrs in absence of albumin by CRE luciferase reporter gene assay. Format: functional, cell-based.

In data set [2] the target is T2, Amylin receptor AMY3; CALCR/RAMP3 (Homo sapiens, UniProt O60896+P30988).
T2 sequence (P30988 whole entry): T1 sequence (P30988 whole entry)
T2 sequence (O60896 whole entry): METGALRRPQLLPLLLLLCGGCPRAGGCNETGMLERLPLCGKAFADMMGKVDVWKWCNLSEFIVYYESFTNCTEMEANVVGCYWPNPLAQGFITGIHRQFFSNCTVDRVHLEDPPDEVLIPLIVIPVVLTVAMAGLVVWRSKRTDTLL
Briefly: Agonist activity at human amylin receptor expressed in BHK570 cells co-expressing RAMP3 assessed as increase in intracellular cAMP concentration incubated for 3 hrs in presence of 10% FBS by CRE luciferase reporter gene assay. The class given is functional, cell-based.

For data set [3], the target named is T1, Calcitonin receptor. Briefly: Agonist activity at human calcitonin receptor expressed in BHK570 cells assessed as increase in intracellular cAMP concentration incubated for 3 hrs in presence of 10% FBS by CRE luciferase reporter gene assay. Format: functional, cell-based.
Data set [4] can be described thus: Solubility in 100 mM glycylglycine buffer at pH 3.0 incubated for 18 hrs by UPLC analysis. Format: physicochemical.
The nature of data set [5]: Solubility in 100 mM glycylglycine buffer at pH 4.0 incubated for 18 hrs by UPLC analysis. Format: physicochemical.
Data set [6] is described as follows: Solubility in 100 mM bistrispropane buffer at pH 6.0 incubated for 18 hrs by UPLC analysis. Format: physicochemical.
The nature of data set [7]: Solubility in 100 mM glycylglycine buffer at pH 5.0 incubated for 18 hrs by UPLC analysis. The class given is physicochemical.
The nature of data set [8]: Solubility in 100 mM bistrispropane buffer at pH 6.5 incubated for 18 hrs by UPLC analysis. Format: physicochemical.
Data set [9] is described as follows: Solubility in 100 mM bistrispropane buffer at pH 7.0 incubated for 18 hrs by UPLC analysis. Format: physicochemical.
The nature of data set [10]: Solubility in 100 mM bistrispropane buffer at pH 7.5 incubated for 18 hrs by UPLC analysis. The class given is physicochemical.
Data set [11] can be described thus: Solubility in 100 mM bistrispropane buffer at pH 8.0 incubated for 18 hrs by UPLC analysis. The class given is physicochemical.
Data set [12] concerns the target T2, Amylin receptor AMY3; CALCR/RAMP3. The experiment in a line: Displacement of [125I]-labeled rat amylin from human amylin receptor expressed in BHK570 cell membranes co-expressing RAMP3 incubated for 120 mins by scintillation proximity assay.
Data set [13] concerns the target T1, Calcitonin receptor. Briefly: Displacement of [125I]-labeled human calcitonin from human calcitonin receptor expressed in BHK tkts13 cell membranes incubated for 1 hr by scintillation proximity assay.
Data set [14] deals with T3, Amylin receptor AMY3; CALCR/RAMP3 (Rattus norvegicus, UniProt P32214+Q9JJ73).
T3 sequence (P32214 whole entry): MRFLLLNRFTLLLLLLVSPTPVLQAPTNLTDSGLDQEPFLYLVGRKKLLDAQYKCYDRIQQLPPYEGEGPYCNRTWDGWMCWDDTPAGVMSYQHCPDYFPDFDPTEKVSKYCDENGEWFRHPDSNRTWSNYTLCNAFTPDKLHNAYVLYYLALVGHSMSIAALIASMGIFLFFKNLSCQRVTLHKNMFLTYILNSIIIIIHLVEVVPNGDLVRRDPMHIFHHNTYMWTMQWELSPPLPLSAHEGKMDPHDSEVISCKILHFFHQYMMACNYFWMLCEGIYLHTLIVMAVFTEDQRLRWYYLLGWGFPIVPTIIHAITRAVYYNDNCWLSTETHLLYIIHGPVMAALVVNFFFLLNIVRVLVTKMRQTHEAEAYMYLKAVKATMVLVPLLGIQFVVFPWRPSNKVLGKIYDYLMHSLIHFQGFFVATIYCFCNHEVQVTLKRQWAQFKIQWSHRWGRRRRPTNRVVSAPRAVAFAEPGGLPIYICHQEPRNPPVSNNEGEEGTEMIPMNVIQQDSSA
T3 sequence (Q9JJ73 whole entry): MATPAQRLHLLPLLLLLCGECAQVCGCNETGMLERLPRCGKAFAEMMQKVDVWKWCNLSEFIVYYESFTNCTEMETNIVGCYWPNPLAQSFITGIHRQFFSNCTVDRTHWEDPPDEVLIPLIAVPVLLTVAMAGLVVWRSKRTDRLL
Briefly: Displacement of [125I]-labeled rat amylin from rat amylin receptor expressed in BHK tkts13 cell membranes co-expressing RAMP3 incubated for 120 mins by scintillation proximity assay.

Data set [15] concerns the target T2, Amylin receptor AMY3; CALCR/RAMP3. Briefly: Displacement of [125I]-labeled rat amylin from human amylin receptor expressed in BHK tkts13 whole cells co-expressing RAMP3 incubated for 60 mins by scintillation proximity assay. The class given is cell-based.
Data set [16] has the same target. Briefly: Agonist activity at human amylin receptor expressed in BHK570 cells co-expressing RAMP3 assessed as increase in intracellular cAMP concentration incubated for 3 hrs in absence of albumin by CRE luciferase reporter gene assay. Format: functional, cell-based.
The subject of data set [17] is Rattus norvegicus. Briefly: Reduction in food intake in Sprague-Dawley rat at 3 nmol/kg measured 0 to 24 hrs post dose relative to control. The class given is functional. Details: scale not given: the % may be the effect or the level left.
Data set [18] relates to Rattus norvegicus. Briefly: Reduction in food intake in Sprague-Dawley rat at 3 nmol/kg measured 24 to 48 hrs post dose relative to control. The class given is functional. Details: scale not given: the % may be the effect or the level left.

Numbered stars: 1 amine (or outer) side, 2 acyl side, 3 side chain; on linkers, the order of the positions; unused ones are H or OH. Side chains are listed from the residue outwards. Peptide text beside a SMILES is read from it. * marks the point of attachment. C20 diacid = O=C(O)CCCCCCCCCCCCCCCCCCC(=O)*; γGlu = O=C(O)[C@H](CCC(=O)[*:2])N[*:1]

On to `CC(C)C[C@H](NC(=O)[C@H](C)NC(=O)[C@H](C)NC(=O)[C@@H](NC(=O)[C@H](CO)NC(=O)[C@H](CC(C)C)NC(=O)[C@H](CCC(=O)O)NC(=O)[C@H](CO)NC(=O)[C@H](C)NC(=O)CC[C@H](NC(=O)CCCCCCCCCCCCCCCCCCC(=O)O)C(=O)O)[C@@H](C)O)C(=O)NCC(=O)N[C@@H](CCCNC(=N)N)C(=O)N[C@@H](CC(C)C)C(=O)N[C@@H](CO)C(=O)N[C@@H](C)C(=O)N[C@@H](CCC(=O)O)C(=O)N[C@@H](CC(C)C)C(=O)N[C@@H](Cc1cnc[nH]1)C(=O)N[C@@H](CCC(=O)O)C(=O)N[C@@H](CC(C)C)C(=O)N[C@@H](C)C(=O)N[C@H](C(=O)N[C@@H](Cc1ccc(O)cc1)C(=O)N1CCC[C@H]1C(=O)N[C@@H](CCCNC(=N)N)C(=O)N[C@H](C(=O)N[C@@H](CCC(=O)O)C(=O)N[C@H](C(=O)NCC(=O)N[C@@H](CO)C(=O)NCC(=O)N[C@@H](C)C(=O)N1CCC[C@H]1C(N)=O)[C@@H](C)O)[C@@H](C)O)[C@@H](C)O` ({C20 diacid-γGlu}-ASELSTAALGRLSAELHELATYPRTETGSGAP-NH2), for which the results for the EC50 (at Calcitonin receptor [1]; in [2]; at Calcitonin receptor [3]) were 0.041 nM, 0.1 nM and 0.037 nM, respectively. Further, the solubility at 18 h in [4], in [5], in data set [6], in [7], in data set [8] and in data set [9] was at least 200 µM throughout. For the same compound, the solubility at 18 h in [10] and in data set [11] was at least 200 µM each time. Also, the IC50 in data set [12] is 0.141 nM; at Calcitonin receptor [13], 0.102 nM; in [14], 0.026 nM; in data set [15], 2.02 nM.
As for `CC(=O)N[C@@H](C)C(=O)N[C@@H](CO)C(=O)N[C@@H](CCC(=O)O)C(=O)N[C@@H](CC(C)C)C(=O)N[C@@H](CO)C(=O)N[C@H](C(=O)N[C@@H](C)C(=O)N[C@@H](C)C(=O)N[C@@H](CC(C)C)C(=O)NCC(=O)N[C@@H](CCCNC(=N)N)C(=O)N[C@@H](CC(C)C)C(=O)N[C@@H](CO)C(=O)N[C@@H](C)C(=O)N[C@@H](CCCCNC(=O)CC[C@H](NC(=O)CCCCCCCCCCCCCCCCCCC(=O)O)C(=O)O)C(=O)N[C@@H](CC(C)C)C(=O)N[C@@H](Cc1cnc[nH]1)C(=O)N[C@@H](CCC(=O)O)C(=O)N[C@@H](CC(C)C)C(=O)N[C@@H](C)C(=O)N[C@H](C(=O)N[C@@H](CC(C)C)C(=O)N1CCC[C@H]1C(=O)N[C@@H](CCCNC(=N)N)C(=O)N[C@H](C(=O)N[C@@H](CCC(=O)O)C(=O)N[C@H](C(=O)NCC(=O)N[C@@H](CO)C(=O)NCC(=O)N[C@@H](CO)C(=O)N1CCC[C@H]1C(N)=O)[C@@H](C)O)[C@@H](C)O)[C@@H](C)O)[C@@H](C)O` (Ac-ASELSTAALGRLSAK([γGlu-C20 diacid])LHELATLPRTETGSGSP-NH2), the EC50 in data set [16] is 0.021 nM; on Calcitonin receptor [1], 0.028 nM; in data set [2] it was 0.1 nM; at Calcitonin receptor [3], 0.044 nM. Moreover, the solubility at 18 h in [4], in data set [5], in [6], in data set [7], in [8] and in data set [9] was at least 200 µM in each case. In addition, the solubility at 18 h in data set [10] and in data set [11] was at least 200 µM throughout. Moreover, the IC50 in data set [12] is 0.074 nM; on Calcitonin receptor [13] it was 0.046 nM; in [14] it was 0.115 nM.
`CC(C)C[C@H](NC(=O)CNC(=O)[C@H](CO)NC(=O)[C@H](C)NC(=O)CC[C@H](NC(=O)CCCCCCCCCCCCCCCCCCC(=O)O)C(=O)O)C(=O)N[C@@H](CO)C(=O)N[C@H](C(=O)N[C@@H](C)C(=O)N[C@@H](C)C(=O)N[C@@H](CC(C)C)C(=O)NCC(=O)N[C@@H](CCCNC(=N)N)C(=O)N[C@@H](CC(C)C)C(=O)N[C@@H](CO)C(=O)N[C@@H](CCC(N)=O)C(=O)N[C@@H](CCC(=O)O)C(=O)N[C@@H](CC(C)C)C(=O)N[C@@H](Cc1cnc[nH]1)C(=O)N[C@@H](CCC(=O)O)C(=O)N[C@@H](CC(C)C)C(=O)N[C@@H](CCC(N)=O)C(=O)N[C@H](C(=O)N[C@@H](Cc1ccc(O)cc1)C(=O)N1CCC[C@H]1C(=O)N[C@@H](Cc1cnc[nH]1)C(=O)N[C@H](C(=O)N[C@@H](CCC(=O)O)C(=O)N[C@H](C(=O)NCC(=O)N[C@@H](CO)C(=O)NCC(=O)N[C@H](C(=O)N[C@@H](Cc1ccc(O)cc1)C(N)=O)[C@@H](C)O)[C@@H](C)O)[C@@H](C)O)[C@@H](C)O)[C@@H](C)O` ({C20 diacid-γGlu}-ASGLSTAALGRLSQELHELQTYPHTETGSGTY-NH2): the Activity came to 20% with Rattus norvegicus [17] and 14% in the data set with Rattus norvegicus [18]. The EC50 in [16] was 0.041 nM; at Calcitonin receptor [1], 0.027 nM; on Calcitonin receptor [3] it was 0.099 nM. For the same compound, the solubility at 18 h in [4], in [5], in data set [6], in data set [8], in data set [9] and in [10] was at least 200 µM throughout. The compound further registered a solubility at 18 h in data set [11] of at least 200 µM. Also, the IC50 is 0.166 nM in data set [12], 0.15 nM at Calcitonin receptor [13], 0.026 nM in data set [14] and 0.142 nM in data set [15].
